From US12351565B2, “Aromatic compound and preparation method therefor and use thereof” (SHANGHAI JIANHE PHARMACEUTICAL & TECHNOLOGY CO. LTD., priority 2018, dated 2025) come the findings set out here.

For this experiment, the system named is C57 mice. Put plainly: Forced swimming experiment, oral administration to mice. It counts as in vivo. To be noted: inhibition of immobility time, C57 mice. The procedure, abridged:
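Male C57 mice (6 weeks) dosed once orally at 20 mg/kg in 0.9% NaCl, tested 1 h and 24 h later after a 10 min pre-swim the day before. Immobility over the last 4 min of a 6 min swim (water 23-25° C); inhibition rate (%) calculated against blank group at each time.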

With `Cl.N[C@]1(c2ccc(C(F)(F)F)cc2)CCC[C@H](O)C1=O` [Compound 51, (2S,6S)-2-amino-6-hydroxy-2-(4-(trifluoromethyl)phenyl)cyclohexane-1-one hydrochloride], under “forced swimming 1 h after single oral (intragastric) 20 mg/kg”, the “1 h inhibition rate” value amounted to 66.9 ± 0.3%. For the same compound, the “24 h inhibition rate” value (forced swimming 24 h after single oral (intragastric) 20 mg/kg) came to 38.6 ± 2.1%.
